Test results taken from ChEMBL document CHEMBL4229566, “Discovery of ( S)-3-(3-(3,5-Dimethyl-1 H-pyrazol-1-yl)phenyl)-4-(( R)-3-(2-(5,6,7,8-tetrahydro-1,8-naphthyridin-2-yl)ethyl)pyrrolidin-1-yl)butanoic Acid, a Nonpeptidic αvβ6 Integrin Inhibitor for the Inhaled Treatment of Idiopathic Pulmonary Fibrosis” (J Med Chem, 2018).

Assays:
[1] = Protein binding in human blood at 1 ug/ml after 4 hrs by LC-MS/MS analysis; type: ADME, tissue-based; settings: at 1 µg/mL, read-out: PB (converted)
[2] = Blood clearance in Wistar Han rat at 1 mg/kg, iv via 30 mins infusion followed by 2 day washout and re-dosed via oral gavage at 3 mg/kg; type: ADME, organism-based; settings: whole blood
[3] = Volume of distribution at steady state in Wistar Han rat at 1 mg/kg, iv via 30 mins infusion followed by 2 day washout and re-dosed via oral gavage at 3 mg/kg; type: ADME, organism-based; settings: in vivo, read-out: Vdss
[4] = Terminal half life in Wistar Han rat at 1 mg/kg, iv dosed via 30 mins infusion; type: ADME, organism-based; settings: in vivo, read-out: beta t1/2
[5] = Cmax in Wistar Han rat at 3 mg/kg, po via gavage; type: ADME, organism-based; set-up: dose 3 mg/kg, route oral; settings: in vivo
[6] = Oral bioavailability in Wistar Han rat at 3 mg/kg via gavage; type: ADME, organism-based; settings: in vivo
[7] = Cmax in Wistar Han rat nebulized with dose level of 0.227 mg/kg; type: ADME, organism-based; set-up: dose 0.227 mg/kg; settings: in vivo, inhaled or intranasal
[8] = Bioavailability in Wistar Han rat nebulized with dose level of 0.227 mg/kg; type: ADME, organism-based; settings: in vivo, inhaled or intranasal
[9] = Clearance in Beagle dog blood at 1 mg/kg, iv dosed via 60 mins infusion followed by 6 days washout and re-dosed via oral gavage at 1 mg/kg; type: ADME, organism-based, Canis lupus familiaris; settings: whole blood
[10] = Volume of distribution at steady state in Beagle dog blood at 1 mg/kg, iv dosed via 60 mins infusion followed by 6 days washout and re-dosed via oral gavage at 1 mg/kg; type: ADME, organism-based, Canis lupus familiaris; settings: whole blood, read-out: Vdss
[11] = Terminal half life in Beagle dog blood at 1 mg/kg, iv dosed via 60 mins infusion followed by 6 days washout and re-dosed via oral gavage at 1 mg/kg; type: ADME, organism-based, Canis lupus familiaris; settings: whole blood, read-out: beta t1/2
[12] = Cmax in Beagle dog at 1 mg/kg, po via gavage; type: ADME, organism-based, Canis lupus familiaris; set-up: dose 1 mg/kg, route oral; settings: in vivo
[13] = Tmax in Beagle dog blood at 1 mg/kg, iv dosed via 60 mins infusion followed by 6 days washout and re-dosed via oral gavage at 1 mg/kg; type: ADME, organism-based, Canis lupus familiaris; settings: whole blood
[14] = Oral bioavailability in Beagle dog at 1 mg/kg via gavage; type: ADME, organism-based, Canis lupus familiaris; settings: in vivo
Rattus norvegicus [15] = test: Total renal clearance in Wistar Han rat at 1 mg/kg, iv; type: ADME, organism-based; settings: in vivo
Canis familiaris [16] = test: Total renal clearance in Beagle dog at 1 mg/kg, iv; type: ADME, organism-based, Canis lupus familiaris; settings: in vivo
Rattus norvegicus [17] = test: Clearance in Wistar Han rat at 1 mg/kg, iv relative to liver blood flow; type: ADME, organism-based; settings: in vivo
Canis familiaris [18] = test: Clearance in Beagle dog at 1 mg/kg, iv relative to liver blood flow; type: ADME, organism-based, Canis lupus familiaris; settings: in vivo
[19] = Bioavailability in Wistar Han rat at 1 mg/kg, it measured after 12 hrs post dose; type: ADME, organism-based; settings: in vivo, inhaled or intranasal
[20] = Bioavailability in Wistar Han rat at 0.227 mg/kg administered via nebulisation; type: ADME, organism-based; settings: in vivo, inhaled or intranasal
[21] = Drug uptake in Wistar Han rat lung at 0.227 mg/kg administered via nebulisation after 7 hrs; type: ADME, organism-based; settings: inhaled or intranasal, read-out: Drug uptake
[22] = Drug uptake in Wistar Han rat lung at 0.227 mg/kg administered via nebulisation up to 7 hrs; type: ADME, organism-based; settings: in vivo, inhaled_or_intranasal
[23] = Drug uptake in Wistar Han rat lung at 6.23 mg/kg administered via nebulized inhalation for 60 mins and measured immediately after inhalation period by MALDI-MS analysis; type: ADME, organism-based; settings: in vivo, inhaled_or_intranasal, 1 h
[24] = Drug uptake in Wistar Han rat lung at 6.23 mg/kg administered via nebulized inhalation for 60 mins and measured after 60 mins post inhalation period by MALDI-MS analysis; type: ADME, organism-based; settings: in vivo, inhaled_or_intranasal, 1 h
[25] = Drug uptake in lung of C57Bl/6J mouse at 1.5 mg/kg/day, sc administered via continuous infusion through mini-pumps measured within 24 hrs; type: ADME, organism-based; settings: in vivo
[26] = Drug uptake in lung of C57Bl/6J mouse at 15 mg/kg/day, sc administered via continuous infusion through mini-pumps measured within 24 hrs; type: ADME, organism-based; settings: in vivo
[27] = Protein binding in mouse blood at 1 ug/ml after 4 hrs by rapid equilibrium dialysis and LC-MS/MS analysis; type: ADME, tissue-based; settings: at 1 µg/mL, read-out: PB (converted)
[28] = Protein binding in rat blood at 1 ug/ml after 4 hrs by rapid equilibrium dialysis and LC-MS/MS analysis; type: ADME, tissue-based; settings: at 1 µg/mL, read-out: PB (converted)
[29] = Protein binding in dog blood at 1 ug/ml after 4 hrs by rapid equilibrium dialysis and LC-MS/MS analysis; type: ADME, tissue-based, Canis lupus familiaris; settings: at 1 µg/mL, read-out: PB (converted)
[30] = Protein binding in human blood at 1 ug/ml after 4 hrs by rapid equilibrium dialysis and LC-MS/MS analysis; type: ADME, tissue-based; settings: at 1 µg/mL, read-out: PB (converted)
[31] = Protein binding in dog plasma at 1 ug/ml after 4 hrs by rapid equilibrium dialysis and LC-MS/MS analysis; type: ADME, cell-free, Canis lupus familiaris; settings: at 1 µg/mL, read-out: PPB (converted)
[32] = Protein binding in human plasma at 1 ug/ml after 4 hrs by rapid equilibrium dialysis and LC-MS/MS analysis; type: ADME, cell-free; settings: at 1 µg/mL, read-out: PPB (converted)
[33] = Protein binding in mouse lung at 1 ug/ml after 4 hrs by rapid equilibrium dialysis and LC-MS/MS analysis; type: ADME, tissue-based; settings: at 1 µg/mL, read-out: PB (converted)
[34] = Protein binding in human lung at 1 ug/ml after 4 hrs by rapid equilibrium dialysis and LC-MS/MS analysis; type: ADME, tissue-based; settings: at 1 µg/mL, read-out: PB (converted)
[35] = Protein binding in rat liver at 1 ug/ml after 4 hrs by rapid equilibrium dialysis and LC-MS/MS analysis; type: ADME, tissue-based; settings: at 1 µg/mL, read-out: PB (converted)
[36] = Protein binding in rat kidneys at 1 ug/ml after 4 hrs by rapid equilibrium dialysis and LC-MS/MS analysis; type: ADME, tissue-based; settings: rat kidney tissue, at 1 µg/mL, read-out: PB (converted)
[37] = Clearance in CD mouse liver microsomes at 0.5 uM up to 45 mins by LC-MS/MS analysis; type: ADME, microsome; settings: 0.75 h
[38] = Clearance in Wistar Han rat liver microsomes at 0.5 uM up to 45 mins by LC-MS/MS analysis; type: ADME, microsome; settings: 0.75 h
[39] = Clearance in Beagle dog liver microsomes at 0.5 uM up to 45 mins by LC-MS/MS analysis; type: ADME, Canis lupus familiaris, microsome; settings: 0.75 h
[40] = Clearance in human liver microsomes at 0.5 uM up to 45 mins by LC-MS/MS analysis; type: ADME, microsome; settings: 0.75 h
[41] = Clearance in CD mouse hepatocytes at 0.5 uM up to 60 mins by LC-MS/MS analysis; type: ADME, cell-based, Hepatocyte; settings: 1 h
[42] = Clearance in Wistar Han rat hepatocytes at 0.5 uM up to 60 mins by LC-MS/MS analysis; type: ADME, cell-based, Hepatocyte; settings: 1 h
[43] = Clearance in Beagle dog hepatocytes at 0.5 uM up to 60 mins by LC-MS/MS analysis; type: ADME, cell-based, Canis lupus familiaris, Hepatocyte; settings: 1 h
[44] = Clearance in human hepatocytes at 0.5 uM up to 60 mins by LC-MS/MS analysis; type: ADME, cell-based, Hepatocyte; settings: 1 h
Rattus norvegicus [45] = test: Biliary clearance in Wistar Han rat assessed as unchanged parent compound level at 1 mg/kg, iv relative to total blood clearance; type: ADME, organism-based; settings: in vivo
in vivo [46] = settings: Wistar Han, rat, po, 3 mg/kg
in vivo [47] = settings: Wistar Han, rat, inhaled or intranasal, 0.227 mg/kg
Description: Tmax in Wistar Han rat nebulized with dose level of 0.227 mg/kg

[48] = target: T1, Voltage-gated inwardly rectifying potassium channel KCNH2 (Homo sapiens, UniProt Q12809)
T1 sequence (Q12809 whole entry): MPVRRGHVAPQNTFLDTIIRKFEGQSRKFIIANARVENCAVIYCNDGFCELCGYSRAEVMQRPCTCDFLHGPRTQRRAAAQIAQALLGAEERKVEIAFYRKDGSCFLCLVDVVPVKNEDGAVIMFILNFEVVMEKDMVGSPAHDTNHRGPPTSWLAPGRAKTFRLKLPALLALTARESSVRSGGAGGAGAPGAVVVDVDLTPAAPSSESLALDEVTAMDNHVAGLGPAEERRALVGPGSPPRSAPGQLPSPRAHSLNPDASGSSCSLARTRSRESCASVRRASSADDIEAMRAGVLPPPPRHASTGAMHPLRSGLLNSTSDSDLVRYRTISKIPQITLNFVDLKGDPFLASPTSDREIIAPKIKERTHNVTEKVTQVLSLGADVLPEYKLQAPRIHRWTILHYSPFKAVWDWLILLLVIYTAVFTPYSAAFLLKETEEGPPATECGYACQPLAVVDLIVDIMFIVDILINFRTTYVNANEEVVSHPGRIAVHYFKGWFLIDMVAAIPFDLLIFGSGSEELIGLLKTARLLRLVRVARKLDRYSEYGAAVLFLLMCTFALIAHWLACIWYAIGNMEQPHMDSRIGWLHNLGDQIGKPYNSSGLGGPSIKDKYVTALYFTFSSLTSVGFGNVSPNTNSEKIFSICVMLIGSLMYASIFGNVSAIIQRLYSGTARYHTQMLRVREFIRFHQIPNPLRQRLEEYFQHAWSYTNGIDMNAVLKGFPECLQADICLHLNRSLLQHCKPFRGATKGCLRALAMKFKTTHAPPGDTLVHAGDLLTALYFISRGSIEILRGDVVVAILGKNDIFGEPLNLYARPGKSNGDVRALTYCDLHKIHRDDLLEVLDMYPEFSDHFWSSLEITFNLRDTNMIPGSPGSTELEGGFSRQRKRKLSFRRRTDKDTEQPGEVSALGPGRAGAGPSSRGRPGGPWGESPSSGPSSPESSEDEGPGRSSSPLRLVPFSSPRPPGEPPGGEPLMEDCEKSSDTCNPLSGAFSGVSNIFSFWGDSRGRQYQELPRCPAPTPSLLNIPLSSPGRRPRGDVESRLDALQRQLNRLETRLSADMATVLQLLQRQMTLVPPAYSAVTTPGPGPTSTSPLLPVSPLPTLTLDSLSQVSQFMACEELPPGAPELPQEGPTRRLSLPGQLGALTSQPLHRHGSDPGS
Description: Inhibition of human ERG expressed in HEK293 cells by Barracuda automated patch clamp assay

[49] = target: T1, Voltage-gated inwardly rectifying potassium channel KCNH2; remark: listed apart in the source
Description: Inhibition of human ERG expressed in HEK293 cells by Q-patch assay

physchem = settings: buffer, pH 7.4, logD
[50] = Stability in solid state form at elevated temperatures and relative humidity conditions; type: physicochemical
[51] = Stability in saline at pH 4 at 50 degC; type: physicochemical; settings: buffer
[52] = Stability in pH 5 to 7 solution under refrigerated conditions; type: physicochemical; settings: buffer

In the case of `Cc1cc(C)n(-c2cccc([C@H](CC(=O)O)CN3CC[C@@H](CCc4ccc5c(n4)NCCC5)C3)c2)n1` [GSK-3008348 FREE BASE], the fraction unbound at 4 h, 1 ug/ml [1] is reported as 0.08, the clearance [2] is reported as 51 to 60 mL/min/kg and the Vd [3] is reported as 1.8 to 2.3 L/kg. It also gave a half-life [4] of 48 to 54 min, a Cmax [5] of 3 to 9 ng/mL and a bioavailability [6] of under 2%. It also gave a Cmax [7] of 30 to 53 ng/mL, a bioavailability [8] of 40 to 63% and a clearance [9] of 25 to 33 mL/min/kg. It also gave a Vd [10] of 2.6 to 4.7 L/kg, a half-life [11] of 72 to 324 min and a Cmax [12] of 55 to 76 ng/mL. It also gave a Tmax [13] of 15 to 30 min, a bioavailability [14] of 27 to 34% and a CL (Rattus norvegicus [15]) of 15%. For the same molecule, the CL (Canis familiaris [16]) was 21%, the CL (Rattus norvegicus [17]) was 70% and the CL (Canis familiaris [18]) was 50%. For the same molecule, the bioavailability [19] was 21%, the bioavailability [20] was 54% and the concentration at 7 h [21] was 10 ng/g. For the same molecule, the Drug uptake [22] was 716 ng, the Drug uptake [23] was “Active” and the Drug uptake [24] was “Not Active”. The Drug uptake [25] was “Active”, the Drug uptake [26] was “Active” and the fraction unbound at 4 h, 1 ug/ml [27] was 0.211. For the same molecule, the fraction unbound at 4 h, 1 ug/ml [28] was 0.294, the fraction unbound at 4 h, 1 ug/ml [29] was 0.228 and the fraction unbound at 4 h, 1 ug/ml [30] was 0.083. It also gave a fraction unbound at 4 h, 1 ug/ml [31] of 0.4, a fraction unbound at 4 h, 1 ug/ml [32] of 0.036 and a fraction unbound at 4 h, 1 ug/ml [33] of 0.1. The fraction unbound at 4 h, 1 ug/ml [34] was 0.108, the fraction unbound at 4 h, 1 ug/ml [35] was 0.085 and the fraction unbound at 4 h, 1 ug/ml [36] was 0.027. It also gave a CLH [37] of 3 mL/min/g, a CLH [38] of 0.55 mL/min/g and a CLH [39] of under 0.53 mL/min/g. It also gave a CLH [40] of 0.58 mL/min/g, a CLH [41] of 15.3 mL/min/g and a CLH [42] of 9.45 mL/min/g. It also gave a CLH [43] of under 1.73 mL/min/g, a CLH [44] of under 0.86 mL/min/g and a CL (Rattus norvegicus [45]) of 24%. It also gave a Tmax (in vivo [46]) of 30 to 120 min and a Tmax (in vivo [47]) of 12 min.

In the case of `O=C(O)C[C@H](CN1CC[C@@H](CCc2ccc3c(n2)NCCC3)C1)c1cccc(-n2cnnc2)c1`, the fraction unbound at 4 h, 1 ug/ml [1] is reported as 0.46, the IC50 [48] is reported as over 50.1 µM and the IC50 [49] is reported as over 31.6 µM. It also gave a logD (physchem) of 1.05.

With `O=C(O)CC(CN1CC[C@@H](CCc2ccc3c(n2)NCCC3)C1)c1cccc(-n2ccnc2)c1` (mixture of isomers) the IC50 [48] was over 50.1 µM, the IC50 [49] was over 31.6 µM and the logD (physchem) was 1.97.

`Cc1nc(C)c(-c2cccc([C@H](CC(=O)O)CN3CC[C@@H](CCc4ccc5c(n4)NCCC5)C3)c2)[nH]1` gave a fraction unbound at 4 h, 1 ug/ml [1] of 0.53, an IC50 [48] of over 50.1 µM and an IC50 [49] of over 31.6 µM. The logD (physchem) was 1.77.

In the case of `Cc1cc(C)n(-c2cc([C@H](CC(=O)O)CN3CC[C@@H](CCc4ccc5c(n4)NCCC5)C3)cc(N3CCOCC3)c2)n1`, the IC50 [48] is reported as over 63.1 µM and the logD (physchem) is reported as 2.73.

For `Cc1cc(C)n(-c2cccc([C@H](CC(=O)O)CN3CC[C@@H](CCc4ccc5c(n4)NCCC5)C3)c2)n1.Cl` [GSK-3008348], the Stability [50] was 4 weeks, the Stability [51] was “<= 6 weeks” and the Stability [52] was 6 weeks.

In the case of `O=C(O)C[C@H](CN1CC[C@@H](CCc2ccc3c(n2)NCCC3)C1)c1cccc(-n2cccn2)c1`, the IC50 [48] is reported as over 50.1 µM, the IC50 [49] is reported as 0.794 µM and the logD (physchem) is reported as 2.4.
